Publication PMC6274076, “Discovery of Uracil Derivatives as Potent Inhibitors of Fatty Acid Amide Hydrolase” (Molecules, 2016)
Values joined by “and” are separate entries in the source; they are usually repeats but may differ in a detail not shown here. Identical values can stand only once. Like-named read-outs stand apart in the source and are kept apart here.

Tests used:
[1] = biological target: T1, recombinant rat FAAH (rFAAH) (Rattus norvegicus, UniProt P97612); assay: FAAH enzyme activity assay (AEA hydrolysis, HPLC-MS/MS); assay type: biochemical; conditions: for FAAH inhibitory activity (in words): rFAAH enzyme assay; for fold decrease in FAAH inhibitory potency vs. compound 1: compared with parent compound 1
T1 construct: expressed in transfected cells; host or cells: HEK293-rFAAH cells (homogenate supernatant)
T1 sequence (P97612 1-579): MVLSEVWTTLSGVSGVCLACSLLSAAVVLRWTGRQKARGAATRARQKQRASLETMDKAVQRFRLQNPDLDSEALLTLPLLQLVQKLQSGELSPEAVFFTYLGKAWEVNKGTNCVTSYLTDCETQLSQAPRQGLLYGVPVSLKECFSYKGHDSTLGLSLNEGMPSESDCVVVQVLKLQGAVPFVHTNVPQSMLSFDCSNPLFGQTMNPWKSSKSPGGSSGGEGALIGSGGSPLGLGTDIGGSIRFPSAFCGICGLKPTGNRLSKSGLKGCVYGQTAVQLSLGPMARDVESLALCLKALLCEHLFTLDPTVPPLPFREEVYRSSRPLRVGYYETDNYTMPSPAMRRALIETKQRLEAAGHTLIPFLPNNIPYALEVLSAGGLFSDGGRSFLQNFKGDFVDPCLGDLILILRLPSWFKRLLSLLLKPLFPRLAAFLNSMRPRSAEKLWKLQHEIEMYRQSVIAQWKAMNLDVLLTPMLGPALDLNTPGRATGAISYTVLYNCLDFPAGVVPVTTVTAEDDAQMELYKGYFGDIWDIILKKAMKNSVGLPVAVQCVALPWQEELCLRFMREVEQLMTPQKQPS
Experimental: The substituted 2,4-dioxopyrimidine-1-carboxamides and the related analogues described above were subjected to in vitro biological evaluation toward recombinant rat FAAH derived from HEK293-rFAAH cell. Enzyme assays were performed at 37 °C by incubating 30 µg of rFAAH protein with 25 μM anandamide as substrate in Tris-HCl buffer containing fatty acid-free BSA (0.05%). When the reactions were terminated, 1 nmol heptadecanoic acid (17:0 FFA) was added as an internal standard. […] The hydrolyzate of AEA (arachidonic acid), together with heptadecanoic acid was detected in HPLC/MS/MS to estimate the potency of rFAAH inhibition according to the methods previously described.
The inhibition effects of uracil derivatives toward recombinant rat FAAH (rFAAH) were assessed by enzyme activity assay. HEK293-rFAAH cells were harvested, washed with PBS, sonicated in 20 mM Tris-HCl (pH 7.5) containing 0.32 M sucrose, and centrifuged at 800× g for 15 min at 4 °C. The supernatants were collected and protein concentrations were measured by BCA protein assay kit (Pierce, Shanghai, China). FAAH proteins (30 μg) were incubated at 37 °C for 30 min in Tris buffer (50 mM, pH = 8.0) containing fatty acid-free BSA (0.05%) and 25 μM AEA (Sigma-Aldrich, Shanghai, China) as substrate. The above reactions were stopped by adding 200 μL methanol containing 1 nmol heptadecanoic acid (17:0 FFA) as internal standard. The reaction mixture was extracted with 4 mL chloroform and then vortex for 1 min. Lipid layer was separated by centrifugation at 3000× g for 10 min and then transferred to a clean 10 mL V-bottom glass tube and dried under nitrogen (N2) flow. After redissolved with 1 mL CHCl3, the lipid solution went through the solid-phase extraction, and was eluted by methanol/chloroform (v/v, 1/9). The elution containing FAEs and FFAs was dried under N2, and reconstituted in 100 μL methanol for HPLC-MS/MS analysis.
Samples were detected by an ABI 3200 Q-Trap mass spectrometer (Applied Biosystems/MDS Sciex) equipped with 1100-LC system (Agilent, Shanghai, China). The mobile phase for FFAs detection was consisted of MeOH and ultra-pure H2O (pH = 7.4, each containing 0.25% acetic acid and 5 mmol/L ammonium acetate), and the elution condition was 95% methanol keeping for 3 min at a flow rate of 1.0 mL·min^−^1. The column temperature was kept at 40 °C. Ion detection was monitored by ESI negative mode. The molecular ions were monitored at m/z 303 for AA, and m/z 269 for C17:0 FFA. Inhibition curves and IC50 values of each compounds was calculated by GraphPad Prism (version 5.01, GraphPad Software Inc., San Diego, CA, USA).

[2] = rFAAH protein 30 μg from HEK293-rFAAH cells, 25 μM anandamide, 37 °C, 30 min, Tris buffer pH 8.0, read-out: IC50 of FAAH Inhibition
[3] = as stated in abstract, read-out: IC50 (FAAH inhibition)

SMILES | IC50 [1, 2] | other results
O=C(NCCc1ccccc1)n1cc(F)c(=O)[nH]c1=O [Compound 10, 5-Fluoro-N-(2-phenylethyl)-2,4-dioxopyrimidine-1-carboxamide] | 98 ± 10 nM | 
O=C(NCc1ccc2ccccc2c1)n1ccc(=O)[nH]c1=O [Compound 12] |  | melting point: 84 to 84.6 °C
O=C(NCc1ccc(-c2ccccc2)cc1)n1cc(F)c(=O)[nH]c1=O [Compound 15, N-[2-(4-biphenyl)methyl]-5-fluoro-2,4-dioxo-pyrimidine-1-carboxamide] | 100 ± 10 nM | fold less potent vs. compound 14 ([1]; compared with compound 14): 2 fold
O=C(NCc1ccc(-c2ccccc2)cc1)n1ccc(=O)[nH]c1=O [Compound 14, N-[2-(4-Biphenyl)methyl]-2,4-dioxopyrimidine-1-carboxamide] | 53 ± 6 nM | IC50 [1, 3]: 53 nM
O=C(Nc1cn(C(=O)NCCc2ccccc2)c(=O)[nH]c1=O)OCc1ccccc1 [Compound 16, Benzyl (2,4-dioxo-1-{[(2-phenylethyl)amino]carbonyl}-1,2,3,4-tetrahydro-5-pyrimidinyl)carbamate (2H)-carboxamide] | 120 ± 30 nM | increase of FAAH inhibitory potency vs. compound 17 ([1]; compared with compound 17): about 10 times
CCCCCCCn1ccc(=O)[nH]c1=O [Compound 19, 1-Heptyl-2,4-dioxopyrimidine] | > 100000 nM | FAAH inhibitory activity (in words) [1]: not inhibited at all
CCCCCCNC(=O)Cn1cc(F)c(=O)[nH]c1=O [Compound 21, 2-[5-Fluoro-2,4-dioxopyrimidinyl]-N-hexylacetamide] | > 100000 nM | FAAH inhibitory activity (in words) [1]: total loss of the FAAH inhibitory activity
Nc1cn(C(=O)NCCc2ccccc2)c(=O)[nH]c1=O [Compound 17, 5-Amino-N-(2-phenylethyl)-2,4-dioxopyrimidine-1-carboxamide] | 1330 ± 130 nM | 
O=C(NCCc1ccccc1)n1cc(O)c(=O)[nH]c1=O [Compound 18, 5-hydroxy-N-(2-phenylethyl)-2,4-dioxopyrimidine-1-carboxamide] | 540 ± 70 nM | 
CCCCCCNC(=O)n1ccc(=O)n(C)c1=O [Compound 4, N-Hexyl-3-methyl-2,4-dioxopyrimidine-1-carboxamide] | 860 ± 80 nM | fold decrease in FAAH inhibitory potency vs. compound 1 [1]: 8- to 10 fold
CCCCCCNC(=O)N1CCC(=O)NC1=O [Compound 2, N-Hexyl-2,4-dioxotetrahydropyrimidine-1-carboxamide] | > 10000 nM | FAAH inhibitory activity (in words) [1]: no inhibitory activity
O=C(NCCc1ccccc1)n1ccc(=O)[nH]c1=O [Compound 7, N-(2-Phenylethyl)-2,4-dioxopyrimidine-1-carboxamide] | 300 ± 70 nM | fold decrease in FAAH inhibitory potency vs. compound 1 [1]: 3 fold
CCCCCCNC(=O)n1cc(C)c(=O)[nH]c1=O [Compound 5, N-Hexyl-5-methyl-2,4-dioxopyrimidine-1-carboxamide] | 250 ± 30 nM | fold decrease in FAAH inhibitory potency vs. compound 1 [1]: 2- to 3 fold
COc1cn(C(=O)NCCc2ccccc2)c(=O)[nH]c1=O [Compound 9, 5-Methoxy-N-(2-phenylethyl)-2,4-dioxopyrimidine-1-carboxamide] | 530 nM and 531 nM | 

Now from value to molecule, other results behind:

IC50 [1, 2] | SMILES | other results
110 ± 30 nM | CCCCCCNC(=O)n1ccc(=O)[nH]c1=O [Compound 1, N-Hexyl-2,4-dioxo-pyrimidine-1-carboxamide] | 
1070 ± 140 nM | Cc1cn(C(=O)NCCc2ccccc2)c(=O)[nH]c1=O [Compound 8, 5-Methyl-N-(2-phenylethyl)-2,4-dioxopyrimidine-1-carboxamide] | 
> 10000 nM | CCCCCCNC(=O)N1CCCNC1=O [Compound 3, N-Hexyl-2-oxotetrahydropyrimidine-1-carboxamide] | FAAH inhibitory activity (in words) [1]: loss of FAAH inhibitory activities
> 100000 nM | CCCCCCCn1cc(F)c(=O)[nH]c1=O [Compound 20, 5-Fluoro-1-heptyl-2,4-dioxopyrimidine] | FAAH inhibitory activity (in words) [1]: not inhibited at all
21 ± 4 nM | O=C(NCCc1ccccc1)n1cc(C(F)(F)F)c(=O)[nH]c1=O [Compound 11, N-(2-Phenylethyl)-5-trifluoromethyl-2,4-dioxopyrimidine-1-carboxamide] | IC50 [1, 3]: 21 nM
1270 ± 210 nM | CCCCCCNC(=O)n1c(C)cc(=O)[nH]c1=O [Compound 6, N-Hexyl-6-methyl-2,4-dioxopyrimidine-1-carboxamide] | fold decrease in FAAH inhibitory potency vs. compound 1 [1]: 8- to 10 fold
